From patent US20250136568A1, “FUSED HETEROCYCLIC COMPOUNDS AS PI3KALPHA INHIBITORS” (Nanjing Zenshine Pharmaceuticals Co., Ltd., priority 2021, published 2025)
Read-outs that look alike come from different tables or passages of the source.

What was measured:
[1] = test system: PI3Kα H1047R mutation cell line MDA-MB-453; experiment: Cell Proliferation IC50 Assay (CellTiter-Glo), MDA-MB-453; type: cell-based; details: Homo sapiens, read-out: IC50 (μM) MDA-MB-453
Source text: PI3Kα H1047R mutation cell line T-47D and MDA-MB-453, E545K mutation cell line MDA-MB-361 and PI3Kα wide type cell line SK-BR-3 were purchased from Cobioer Biotech (cat. no CBP60397, CBP60386, CBP60383 and CBP60413 respectively). The CellTiter-Glo Direct Cell Proliferation Assay Kit was purchased from Prornega (cat. No. G7573)
For cell proliferation assay in each cell line: • a. Prepare complete medium (R PMI 1640, DMEM or McCoys): Add FBS and appropriate additives according to the information sheet provided by the vendor. Mix gently. • b. Prepare single cell suspension and count the cell numbers and adjust cells to appropriate density. • c. Add 80 μL of cell suspension to 96-well opaque-walled clear bottom plates according to the planned plate layout and place the plates in the CO2 incubator overnight. • d. Prepare intermediate plate: 10 μl of diluted test compounds or staurosporine solution (200×) is added to a 96 deep well plate. Then 390 μl of culture medium without FBS is added to the respective wells. • e. Transfer 20 μL of the solutions from the above intermediate plate to the wells of the plate prepared containing 80 μL of the culture medium and cells. The total dilution is 200 folds. • f. The cells were then incubated at 5% CO2, 37° C. for 72 hours. • g. Equilibrate the plate and its contents to room temperature for approximately 30 minutes. • h. Add 100 μL of CellTiter-Glo reagent to the assay plate • i. Mix contents for 10 minutes on an orbital shaker to induce cell lysis. • j. Allow the plate to incubate at room temperature for 10 minutes to stabilize luminescent signal, • k. Paste the clear bottom with white back seal and record luminescence with Varioskan LUX plate reader.
Inhibition % and IC50 value were calculated by the formula described below: […]

[2] = test system: PI3Kα wide type cell line SK-BR-3; experiment: Cell Proliferation IC50 Assay (CellTiter-Glo), SK-BR-3; type: cell-based; details: Homo sapiens; SK-BR-3 (PI3Kα wild type), 72 hours, CellTiter-Glo; read-out: IC50 (μM) SK-BR-3
Outline: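 Read-out was CellTiter-Glo luminescence after 72 h of compound exposure at 37 °C, 5% CO2. Cells had been plated overnight in complete medium before the compound was added at a 200-fold final dilution. IC50 was derived from percent inhibition.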

[3] = MDA-MB-453 (H1047R), 72 hours, CellTiter-Glo

IC50 [1, 3] [µM] | IC50 [2] [µM] | Structure (SMILES) | IC50 ([1]; MDA-MB-453, 72 h) [µM]
6.39 | > 10 | Cc1cc(C(C)Nc2ccccc2C(=O)O)c2oc(-c3ccc(=O)n(C)c3)cc(=O)c2c1 (stereo not shown) [Example 50, 2-((1-(6-methyl-2-(1-methyl-6-oxo-1,6-dihydropyridin-3-yl)-4-oxo-4H-chromen-8-yl)ethyl)amino)benzoic acid] | 
2.48 | > 10 | Cc1cc(C(C)Nc2ccccc2C(=O)O)c2oc(-c3ccc4cn(C)nc4c3)cc(=O)c2c1 (stereo not shown) [Example 51, 2-((1-(6-methyl-2-(2-methyl-211-indazol-6-yl)-4-oxo-4H-chromen-8-yl)ethyl)amino)benzoic acid] | 
0.78 | > 10 | Cc1cc(C(C)Nc2ccccc2C(=O)O)c2oc(-c3ccc4cnn(C)c4c3)cc(=O)c2c1 (stereo not shown) [Example 52, 2-((1-(6-methyl-2-(1-methyl-1H-indazol-6-yl)-4-oxo-4H-chromen-8-yl)ethyl)amino)benzoic acid] | 
0.55 | > 10 | Cc1cc(C(C)Nc2ccccc2C(=O)O)c2oc(-c3ccc4nn(C5COC5)cc4c3)cc(=O)c2c1 (stereo not shown) [Example 56, 2-((1-(6-methyl-2-(2-(oxetan-3-yl)-2H-indazol-5-yl)-4-oxo-4H-chromen-8-yl)ethyl)amino)benzoic acid] | 
0.62 | > 10 | Cc1cc(C(C)Nc2ccccc2C(=O)O)c2oc(-c3ccc4nn(CCO)cc4c3)cc(=O)c2c1 (stereo not shown) [Example 57, 2-((1-(2-(2-(2-hydroxyethyl)-2H-indazol-5-yl)-6-methyl-4-oxo-4H-chromen-8-yl)ethyl)amino)benzoic acid] | 
0.27 | > 10 | COCCn1cc2cc(-c3cc(=O)c4cc(C)cc(C(C)Nc5ccccc5C(=O)O)c4o3)ccc2n1 (stereo not shown) [Example 58, 2-((1-(2-(2-(2-methoxyethyl)-211-indazol-5-yl)-6-methyl-4-oxo-4H-chromen-8-yl)ethyl)amino)benzoic acid] | 
6 | > 10 | Cc1cc(C(C)Nc2ccccc2C(=O)O)c2oc(-c3ccc4ncn(C)c4c3)cc(=O)c2c1 (stereo not shown) [Example 60, 2-((1-(6-methyl-2-(1-methyl-1H-benzo[d]imidazol-6-yl)-4-oxo-4H-chromen-8-yl)ethyl)amino)benzoic acid] | 
8.48 | > 10 | Cc1cc(C(C)Nc2ccccc2C(=O)O)c2oc(-c3cc4cn(C)nc4cc3C)cc(=O)c2c1 (stereo not shown) [Example 61, 2-((1-(2-(2,6-dimethyl-21-indazol-5-yl)-6-methyl-4-oxo-4H-chromen-8-yl)ethyl)amino)benzoic acid] | 
0.47 | > 10 | Cc1cc(C(C)Nc2ccccc2C(=O)O)c2oc(-c3ccc4nn(C)cc4c3C)cc(=O)c2c1 (stereo not shown) [Example 62, 2-((1-(2-(2,4-dimethyl-2H-indazol-5-yl)-6-methyl-4-oxo-4H-chromen-8-yl)ethyl)amino)benzoic acid] | 
1.06 | > 10 | Cc1cc(C(C)Nc2ccccc2C(=O)O)c2oc(-c3ccc4nn(C)nc4c3)cc(=O)c2c1 (stereo not shown) [Example 69, 2-((1-(6-methyl-2-(2-methyl-2H-benzo[d][1,2,3]triazol-5-yl)-4-oxo-4H-chromen-8-yl)ethyl)amino)benzoic acid] | 
0.26 | > 10 | Cc1cc(C(C)Nc2ccccc2C(=O)O)c2oc(-c3ccc4nn(C)cc4n3)cc(=O)c2c1 (stereo not shown) [Example 84, 2-((1-(6-methyl-2-(2-methyl-2H-pyrazolo[4,3-b]pyridin-5-yl)-4-oxo-4H-chromen-8-yl)ethyl)amino)benzoic acid] | 
0.87 | > 10 | Cc1cc(C(C)Nc2ccccc2C(=O)O)c2oc(-c3ccc4nn(C)c(C)c4c3)cc(=O)c2c1 (stereo not shown) [Example 111, 2-((1-(2-(2,3-dimethyl-2H-indazol-5-yl)-6-methyl-4-oxo-4H-chromen-8-yl)ethyl)amino)benzoic acid] | 
0.56 | > 10 | Cc1cc(C(C)Nc2ccccc2C(=O)O)c2oc(-c3ccc4c(=O)n(C)ncc4c3)cc(=O)c2c1 (stereo not shown) [Example 122, 2-((1-(6-methyl-2-(2-methyl-1-oxo-1,2-dihydrophthalazin-6-yl)-4-oxo-4H-chromen-8-yl)ethyl)amino)benzoic acid] | 

Further lines, the compound ahead of its results:

Structure (SMILES) | IC50 [1, 3] [µM] | IC50 [2] [µM] | IC50 ([1]; MDA-MB-453, 72 h) [µM]
Cc1cc(C(C)Nc2ccccc2C(=O)O)c2oc(-c3ccc(N4CCOCC4=O)cc3)cc(=O)c2c1 (stereo not shown) [Example 64, 2-((1-(6-methyl-4-oxo-2-(4-(3-oxomorpholino)phenyl)-4H-chromen-8-yl)ethyl)amino)benzoic acid] | 1.9 | > 10 | 
CC(=O)N1CCN(c2ccc(-c3cc(=O)c4cc(C)cc(C(C)Nc5ccccc5C(=O)O)c4o3)cc2)CC1 (stereo not shown) [Example 65, 2-((1-(2-(4-(4-acetylpiperazin-1-yl)phenyl)-6-methyl-4-oxo-4H-chromen-8-yl)ethyl)amino)benzoic acid] | 0.21 | > 10 | 
Cc1cc(C(C)Nc2ccccc2C(=O)O)c2oc(-c3ccc(N4CCOCC4C)cc3)cc(=O)c2c1 (stereo not shown) [Example 66, 2-((1-(6-methyl-2-(4-(3-methylmorpholino)phenyl)-4-oxo-4H-chromen-8-yl)ethyl)amino)benzoic acid] | 0.2 | > 10 | 
Cc1cc(C(C)Nc2ccccc2C(=O)O)c2oc(-c3ccc(N4CCOC(C)C4)cc3)cc(=O)c2c1 (stereo not shown) [Example 67, 2-((1-(6-methyl-2-(4-(2-methylmorpholino)phenyl)-4-oxo-4H-chromen-8-yl)ethyl)amino)benzoic acid] | 0.2 | > 10 | 
Cc1cc(C(C)Nc2ccccc2C(=O)O)c2oc(-c3ccc(N4CCN(C)CC4)cc3)c(C)c(=O)c2c1 (stereo not shown) [Example 90, 2-((1-(3,6-dimethyl-2-(4-(4-methylpiperazin-1-yl)phenyl)-4-oxo-4H-chromen-8-yl)ethyl)amino)benzoic acid] | 0.09 | > 10 | 
Cc1cc([C@@H](C)Nc2ccccc2C(=O)O)c2oc(-c3ccc(N4CCN(C5COC5)CC4)cc3)c(C)c(=O)c2c1 [Example 118, (R)-2-((1-(3,6-dimethyl-2-(4-(4-(oxetan-3-yl)piperazin-1-yl)phenyl)-4-oxo-4H-chromen-8-yl)ethyl)amino)benzoic acid] |  | 7.52 | 0.14
Cc1cc(C(C)Nc2ccccc2C(=O)O)c2oc(-c3ccc4c(=O)n(C)ccc4c3)cc(=O)c2c1 (stereo not shown) [Example 120, 2-((1-(6-methyl-2-(2-methyl-1-oxo-1,2-dihydroisoquinolin-6-yl)-4-oxo-4H-chromen-8-yl)ethyl)amino)benzoic acid] | 1.18 | > 10 | 
Cc1cc(C(C)Nc2ccccc2C(=O)O)c2oc(C3CCN(c4ccccn4)CC3)c(C)c(=O)c2c1 (stereo not shown) [Example 124, 2-((1-(3,6-dimethyl-4-oxo-2-(1-(pyridin-2-yl)piperidin-4-yl)-4H-chromen-8-yl)ethyl)amino)benzoic acid] |  | > 10 | 0.5
Cc1cc(C(C)Nc2ccccc2C(=O)O)c2oc(C3CCN(c4cccnc4)CC3)c(C)c(=O)c2c1 (stereo not shown) [Example 125, 2-((1-(3,6-dimethyl-4-oxo-2-(1-(pyridin-3-yl)piperidin-4-yl)-4H-chromen-8-yl)ethyl)amino)benzoic acid] | 0.4 | > 10 | 
Cc1cc(C(C)Nc2ccccc2C(=O)O)c2oc(C3CCN(c4ccncc4)CC3)c(C)c(=O)c2c1 (stereo not shown) [Example 126, 2-((1-(3,6-dimethyl-4-oxo-2-(1-(pyridin-4-yl)piperidin-4-yl)-4H-chromen-8-yl)ethyl)amino)benzoic acid] | 2.46 | > 10 | 
